Experimental data published in PMC9732672, “Pyrazolyl-s-triazine with indole motif as a novel of epidermal growth factor receptor/cyclin-dependent kinase 2 dual inhibitors” (Frontiers in Chemistry, 2022).
Read-outs that look alike come from different tables or passages of the source.

Experiments:
[1] = system: A549 (non-small cell lung cancer) cells; test: MTT cytotoxicity assay, A549; type: cell-based, human; conditions: read-out: IC50 ± STDEV, A549
Method: (§1) The parental MCF7 (breast cancer cell line), A549 (non-small cell lung cancer cell line), and human dermal fibroblast (HDF) (human dermal cell line) cells were obtained from the American Type Culture Collection (ATCC, Manassas, VA, United States). MCF7 and A549 cells were cultured in RPMI 1640 medium (EuroClone, Italy) supplemented with 10% (v/v) heat-inactivated fetal bovine serum (FBS) (EuroClone, Italy), 1% penicillin-streptomycin (EuroClone, Italy), and 2 mM L-glutamine.
(§2) The cytotoxic activity of the tested compounds were tested using MTT assay. […] Then, the cell viability was recored and IC50 values were calcualted. ([Mosmann, 1983]; [Nafie et al., 2020c]).

[2] = system: MCF-7 (breast cancer) cells; test: MTT cytotoxicity assay, MCF-7; type: cell-based, human; conditions: read-out: IC50 ± STDEV, MCF-7
Method: as §1, §2

[3] = system: HDFs (non-cancerous human dermal fibroblasts); test: MTT cytotoxicity assay, HDFs; type: cell-based; conditions: non-cancerous cells, average ±SD of four independent experiments, read-out: IC50 ± STDEV, HDFs
Method: as §1, §2

[4] = target: T1, EGFR (Homo sapiens, UniProt P00533); test: EGFR-TK kinase assay (ADP-Glo); type: biochemical; conditions: Mean ± SD of three independent replicates; read-out: EGFR inhibition IC50
T1 construct: purchased Promega V9261
T1 sequence (P00533 25-1210): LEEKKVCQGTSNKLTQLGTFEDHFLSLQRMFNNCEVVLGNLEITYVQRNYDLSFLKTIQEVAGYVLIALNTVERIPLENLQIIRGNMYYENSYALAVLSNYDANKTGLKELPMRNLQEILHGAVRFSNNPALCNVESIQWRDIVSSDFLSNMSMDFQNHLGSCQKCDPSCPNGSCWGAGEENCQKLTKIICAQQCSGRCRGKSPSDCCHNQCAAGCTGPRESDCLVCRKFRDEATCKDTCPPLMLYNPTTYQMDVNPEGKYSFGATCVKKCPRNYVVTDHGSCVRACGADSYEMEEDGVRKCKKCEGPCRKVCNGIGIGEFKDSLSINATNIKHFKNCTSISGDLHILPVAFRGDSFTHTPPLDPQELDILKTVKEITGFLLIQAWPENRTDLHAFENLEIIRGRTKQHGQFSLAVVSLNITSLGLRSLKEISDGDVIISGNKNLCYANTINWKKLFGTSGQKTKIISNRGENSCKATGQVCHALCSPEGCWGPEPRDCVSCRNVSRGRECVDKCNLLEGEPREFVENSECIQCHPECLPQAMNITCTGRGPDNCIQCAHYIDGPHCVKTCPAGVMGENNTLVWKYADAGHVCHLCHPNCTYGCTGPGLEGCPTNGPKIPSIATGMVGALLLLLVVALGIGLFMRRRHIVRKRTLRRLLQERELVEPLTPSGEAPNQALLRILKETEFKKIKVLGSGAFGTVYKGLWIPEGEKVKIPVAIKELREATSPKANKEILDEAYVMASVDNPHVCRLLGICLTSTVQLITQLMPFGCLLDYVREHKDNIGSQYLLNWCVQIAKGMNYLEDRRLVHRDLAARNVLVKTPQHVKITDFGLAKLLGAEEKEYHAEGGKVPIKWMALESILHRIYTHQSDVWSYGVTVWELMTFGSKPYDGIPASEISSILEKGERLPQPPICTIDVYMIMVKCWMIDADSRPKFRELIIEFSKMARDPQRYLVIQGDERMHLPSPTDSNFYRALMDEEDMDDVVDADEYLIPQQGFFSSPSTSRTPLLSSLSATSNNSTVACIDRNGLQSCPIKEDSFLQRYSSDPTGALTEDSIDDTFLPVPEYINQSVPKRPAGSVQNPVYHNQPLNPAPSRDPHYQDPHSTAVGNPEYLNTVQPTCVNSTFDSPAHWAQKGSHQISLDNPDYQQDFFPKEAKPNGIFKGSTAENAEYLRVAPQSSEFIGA
Method: EGFR-TK assay kit (ADP-Glo™ kinase assay, Cat No. V9261, Promega, United States) kinase assay was performed to evaluate the capacity of 3h, 3i, and 3j to inhibit EGFR.

[5] = target: CDK-2 (Homo sapiens, UniProt P24941); test: CDK-2 enzyme inhibition; type: biochemical; conditions: Mean ± SD of three independent replicates
[6] = system: A549 cells; test: Flow cytometry, Annexin V/PI staining; type: cell-based, human; conditions: A549, IC50 value, 48 h; for cells undergoing late apoptosis: control 0.16%; for cells undergoing early apoptosis: control 0.42%; for total apoptosis / total apoptotic cell death, fold vs control: control 0.61%; for necrosis-mediated cell death / necrosis-mediated cell death, fold increase: control 0.97%
Method: A549 cells were seeded into 6-well culture plates (3-5× 10^5 cells/well) and incubated overnight. […] Next, media supernatants and cells were collected and rinsed with ice-cold PBS. The cells were then suspended in the flow cytometry solutions and cells were stained with Annexin V/PI, and data was acquired using a Cytoflex FACS machine. Data were analyzed using cytExpert software. ([Hisham et al., 2019]; [Khodair et al., 2019]; [Nafie et al., 2020b]).

[7] = average ±SD of four independent experiments
[8] = Homo sapiens, A549, average ±SD of four independent experiments
[9] = Homo sapiens, MCF7, average ±SD of four independent experiments

Row | Molecule | IC50 [1, 8] | IC50 [2, 9] | IC50 ([3]; Homo sapiens, Fibroblast) | melting point | also measured
1 | 2-(4,6-Di (piperidin-1-yl)-1,3,5-triazin-2-yl)-3-(1H-indol-3-yl)-2,3-dihydro-1H-pyrazole-4-carbonitrile [Compound 5a] |  |  |  |  | IC50 [1, 7]: 66.1 ± 5.71 µM; IC50 [2, 7]: 65.2 ± 1.43 µM; IC50 [3]: > 500 µM
2 | Nc1cc(-c2c[nH]c3ccccc23)nn1-c1nc(N2CCCCC2)nc(N2CCCCC2)n1 [Compound 3a, 1-(4,6-Di (piperidin-1-yl)-1,3,5-triazin-2-yl)-3-(1H-indol-3-yl)-1H-pyrazol-5-amine] | > 500 µM | > 500 µM | > 500 µM | 288 to 290 °C | 
3 | Nc1cc(-c2c[nH]c3ccccc23)nn1-c1nc(N2CCOCC2)nc(N2CCOCC2)n1 [Compound 3b, 1-(4,6-Dimorpholino-1,3,5-triazin-2-yl)-3-(1H-indol-3-yl)-1H-pyrazol-5-amine] | 3.08 ± 1.27 µM | 11.7 ± 1.77 µM | 4.47 ± 1.43 µM | 188 to 189 °C | 
4 | Nc1cc(-c2c[nH]c3ccccc23)nn1-c1nc(N2CCCCC2)nc(N2CCOCC2)n1 [Compound 3c, 3-(1H-Indol-3-yl)-1-(4-morpholino-6-(piperidin-1-yl)-1,3,5-triazin-2-yl)-1H-pyrazol-5-amine] | 4.82 ± 0.29 µM | 12.6 ± 1.03 µM | 6.82 ± 1.34 µM | 178 to 179 °C | 
5 | Nc1cc(-c2c[nH]c3ccccc23)nn1-c1nc(Nc2ccccc2)nc(N2CCCCC2)n1 [Compound 3d, 4-(5-Amino-3-(1H-indol-3-yl)-1H-pyrazol-1-yl)-N-phenyl-6-(piperidin-1-yl)-1,3,5-triazin-2-amine] | 10.6 ± 2.88 µM | 11.7 ± 4.43 µM | 22.9 ± 5.2 µM |  | 
6 | Nc1cc(-c2c[nH]c3ccccc23)nn1-c1nc(Nc2ccc(Cl)cc2)nc(N2CCCCC2)n1 [Compound 3e, 4-(5-Amino-3-(1H-indol-3-yl)-1H-pyrazol-1-yl)-N-(4-chlorophenyl)-6-(piperidin-1-yl)-1,3,5-triazin-2-amine] | 9.57 ± 1.26 µM | 15.2 ± 0.74 µM | 11.2 ± 0.69 µM | 295 to 296 °C | 
7 | Nc1cc(-c2c[nH]c3ccccc23)nn1-c1nc(Nc2ccc(Br)cc2)nc(N2CCCCC2)n1 [Compound 3f, 4-(5-Amino-3-(1H-indol-3-yl)-1H-pyrazol-1-yl)-N-(4-bromophenyl)-6-(piperidin-1-yl)-1,3,5-triazin-2-amine] | 14.8 ± 0.83 µM | 13.2 ± 0.55 µM | 6.8 ± 1.02 µM | 271 to 274 °C | 
8 | COc1ccc(Nc2nc(N3CCCCC3)nc(-n3nc(-c4c[nH]c5ccccc45)cc3N)n2)cc1 [Compound 3g, 4-(5-Amino-3-(1H-indol-3-yl)-1H-pyrazol-1-yl)-N-(4-methoxyphenyl)-6-(piperidin-1-yl)-1,3,5-triazin-2-amine] | 6.23 ± 0.48 µM | 7.68 ± 0.21 µM | 4.36 ± 0.83 µM |  | 
9 | Nc1cc(-c2c[nH]c3ccccc23)nn1-c1nc(Nc2ccccc2)nc(N2CCOCC2)n1 [Compound 3h, 4-(5-Amino-3-(1H-indol-3-yl)-1H-pyrazol-1-yl)-6-morpholino-N-phenyl-1,3,5-triazin-2-amine] | 2.65 ± 0.22 µM | 2.66 ± 0.26 µM | 14 ± 2.67 µM |  | IC50 [4]: 0.0642 ± 0.00312 µM; IC50 [5]: 0.112 ± 0.00301 µM; cells undergoing late apoptosis [6]: 12%; cells undergoing early apoptosis [6]: 19.4%; total apoptosis [6]: 31.4%; total apoptotic cell death, fold vs control [6]: 51.4 fold; necrosis-mediated cell death [6]: 4.98%; necrosis-mediated cell death, fold increase [6]: 5.1 fold
10 | Nc1cc(-c2c[nH]c3ccccc23)nn1-c1nc(Nc2ccc(Br)cc2)nc(N2CCOCC2)n1 [Compound 3j, 4-(5-Amino-3-(1H-indol-3-yl)-1H-pyrazol-1-yl)-N-(4-bromophenyl)-6-morpholino-1,3,5-triazin-2-amine] | 2.32 ± 0.21 µM | 3.3 ± 0.32 µM | 3.96 ± 0.73 µM |  | IC50 [4]: 0.0684 ± 0.00298 µM; IC50 [5]: 0.136 ± 0.00314 µM; cells undergoing late apoptosis [6]: 8.5%; cells undergoing early apoptosis [6]: 22.6%; total apoptosis [6]: 31.1%; total apoptotic cell death, fold vs control [6]: 50.9 fold; necrosis-mediated cell death [6]: 5.42%; necrosis-mediated cell death, fold increase [6]: 5.58 fold
11 | COc1ccc(Nc2nc(N3CCOCC3)nc(-n3nc(-c4c[nH]c5ccccc45)cc3N)n2)cc1 [Compound 3k, 4-(5-Amino-3-(1H-indol-3-yl)-1H-pyrazol-1-yl)-N-(4-methoxyphenyl)-6-morpholino-1,3,5-triazin-2-amine] | 3.64 ± 1.26 µM | 4.11 ± 0.5 µM | 8.9 ± 1.07 µM |  | 
12 | N#Cc1cnn(-c2nc(N3CCOCC3)nc(N3CCOCC3)n2)c1-c1c[nH]c2ccccc12 [Compound 5b, 1-(4,6-Dimorpholino-1,3,5-triazin-2-yl)-5-(1H-indol-3-yl)-1H-pyrazole-4 carbonitrile] | > 500 µM | > 500 µM | > 500 µM | 328 to 330 °C | 
13 | N#Cc1cnn(-c2nc(N3CCCCC3)nc(N3CCOCC3)n2)c1-c1c[nH]c2ccccc12 [Compound 5c, 5-(1H-Indol-3-yl)-1-(4-morpholino-6-(piperidin-1-yl)-1,3,5-triazin-2-yl)-1H-pyrazol4-carbonitrile] | 223 ± 88.3 µM | 152 ± 50.1 µM | 537 ± 71.6 µM |  | 
14 | N#Cc1cnn(-c2nc(Nc3ccccc3)nc(N3CCCCC3)n2)c1-c1c[nH]c2ccccc12 [Compound 5d, 5-(1H-Indol-3-yl)-1-(4-(phenylamino)-6-(piperidin-1-yl)-1,3,5-triazin-2-yl)-1H-pyrazole-4-carbonitrile] | 10.3 ± 2.64 µM | 16.8 ± 0.78 µM | 115 ± 14.8 µM | 298 to 299 °C | 
15 | N#Cc1cnn(-c2nc(Nc3ccc(Cl)cc3)nc(N3CCCCC3)n2)c1-c1c[nH]c2ccccc12 [Compound 5e, 1-(4-((4-Chlorophenyl)amino)-6-(piperidin-1-yl)-1,3,5-triazin-2-yl)-5-(1H-indol-3-yl)-1H-pyrazole-4-carbonitrile] | > 500 µM | > 500 µM | > 500 µM |  | 
16 | N#Cc1cnn(-c2nc(Nc3ccc(Br)cc3)nc(N3CCCCC3)n2)c1-c1c[nH]c2ccccc12 [Compound 5f, 1-(4-((4-Bromophenyl)amino)-6-(piperidin-1-yl)-1,3,5-triazin-2-yl)-5-(1H-indol-3-yl)-1H-pyrazole-4-carbonitrile] | > 500 µM | > 500 µM | > 500 µM |  | 
17 | COc1ccc(Nc2nc(N3CCCCC3)nc(-n3ncc(C#N)c3-c3c[nH]c4ccccc34)n2)cc1 [Compound 5g, 5-(1H-Indol-3-yl)-1-(4-((4-methoxyphenyl)amino)-6-(piperidin-1-yl)-1,3,5-triazin-2-yl)-1H-pyrazole-4-carbonitrile] | > 500 µM | > 500 µM | > 500 µM | 273 to 275 °C | 
18 | N#Cc1cnn(-c2nc(Nc3ccccc3)nc(N3CCOCC3)n2)c1-c1c[nH]c2ccccc12 [Compound 5h, 5-(1H-Indol-3-yl)-1-(4-morpholino-6-(phenylamino)-1,3,5-triazin-2-yl)-1H-pyrazole-4-carbonitrile] | 7.62 ± 0.85 µM |  | 23.8 ± 3.37 µM | 314 to 316 °C | 
19 | N#Cc1cnn(-c2nc(Nc3ccc(Cl)cc3)nc(N3CCOCC3)n2)c1-c1c[nH]c2ccccc12 [Compound 5i, 1-(4-((4-Chlorophenyl)amino)-6-morpholino-1,3,5-triazin-2-yl)-5-(1H-indol-3-yl)-1H-pyrazole-4-carbonitrile] | 44.5 ± 19.2 µM | 59.8 ± 0.81 µM | > 500 µM |  | 
20 | N#Cc1cnn(-c2nc(Nc3ccc(Br)cc3)nc(N3CCOCC3)n2)c1-c1c[nH]c2ccccc12 [Compound 5j, 1-(4-((4-Bromophenyl)amino)-6-morpholino-1,3,5-triazin-2-yl)-5-(1H-indol-3-yl)-1H-pyrazole-4-carbonitrile] | 23.2 ± 2.27 µM | 51.1 ± 10.3 µM | > 500 µM |  | 
21 | COc1ccc(Nc2nc(N3CCOCC3)nc(-n3ncc(C#N)c3-c3c[nH]c4ccccc34)n2)cc1 [Compound 5k, 5-(1H-Indol-3-yl)-1-(4-((4-methoxyphenyl)amino)-6-morpholino-1,3,5-triazin-2-yl)-1H-pyrazole-4-carbonitrile] | > 500 µM | > 500 µM | > 500 µM | 293 to 295 °C | 
22 | COc1cccc2c1C(=O)c1c(O)c3c(c(O)c1C2=O)C[C@@](O)(C(=O)CO)C[C@@H]3O[C@H]1C[C@H](N)[C@H](O)[C@H](C)O1 [Doxorubicin, reference compound] | 0.28 ± 0.11 µM | 0.06 ± 0.02 µM | 0.42 ± 0.27 µM |  | 
